Source: patent US11155517B2, “4-substituted phenylamine derivatives and their use to protect crops by fighting undesired phytopathogenic micoorganisms” (PI INDUSTRIES LTD., priority 2016, dated 2021)

Experiments:
[1] = test system: Fusarium culmorum; test: Fusarium culmorum (foot rot of cereals) in vitro test, radial growth on Potato Dextrose Agar; type: cell-based; details: Fusarium culmorum, 168 h, read-out: % control compared to the untreated check (radial growth)
[2] = test system: Alternaria solani; test: Alternaria solani (early blight of tomato/potato) in vitro test, radial growth on Potato Dextrose Agar; type: cell-based; details: 168 h, 300 ppm, seven days, 25° C., read-out: % control compared to the untreated check (radial growth)
[3] = test system: Pyricularia oryzae; test: microbe, parasite or virus in culture; type: cell-based; details: 168 h, read-out: % control compared to the untreated check (radial growth)
[4] = test system: Colletotrichum capsici; test: Colletotrichum capsici (anthracnose) in vitro test, radial growth on Potato Dextrose Agar; type: cell-based; details: Colletotrichum truncatum, 168 h; 300 ppm; seven days, 25° C.; read-out: % control compared to the untreated check (radial growth)
[5] = test system: Botrytis cinerea; test: Botrytis cinerea (gray mold) in vitro test, radial growth on Potato Dextrose Agar; type: cell-based; details: 168 h, 300 ppm, seven days, 22° C., read-out: % (control) compared to the untreated check (radial growth)
[6] = test system: Fusarium culmorum; test: Greenhouse Fusarium culmorum test in wheat, preventive; type: in vivo; details: 24 h, read-out: Efficacy (% control), disease severity vs untreated check
Procedure: Compounds were dissolved in 2% DMSO/Acetone & then mixed with water to calibrated spray volume of 50 ml. This 50 ml spray solution was poured into the spray bottles for further applications.
To test the preventive activity of compounds, healthy young wheat plants raised in the greenhouse were sprayed with active compound preparation at the stated application rates inside the spray cabinets using hallowcone nozzles. One day after treatment, the plants were inoculated with spore suspension (2% Malt) containing 2×10^6 Fusarium culmorum inoculum. The inoculated plants were then kept in greenhouse chamber at 24° C. temperature and 80-90% relative humidity for disease expression.
A visual assessment of compound's performance was carried by rating the disease severity (0-100% scale) on treated plants on 3, 7, 10 and 15 days after application. Efficacy (% control) of the compounds was calculated by comparing the disease rating in the treatment with untreated control. The sprayed plants were also assessed for compound's phytotoxic effects by recording symptoms like necrosis, chlorosis and stunting.

[7] = test system: Rhizoctonia solani; test: Rhizoctonia solani (rice sheath blight/potato black scurf) in vitro test, radial growth on Potato Dextrose Agar; type: cell-based; details: 168 h, 300 ppm, seven days, 25° C., read-out: % control compared to the untreated check (radial growth)
[8] = test system: Botrytis cinera; test: Greenhouse Botrytis cinera test in tomato, preventive; type: in vivo; details: 24 h, plants sprayed one day before inoculation, read-out: Efficacy (% control), disease severity vs untreated check
[9] = test system: Septoria lycopersici; test: Septoria lycopersici (leaf spot of tomato) in vitro test, radial growth on Potato Dextrose Agar; type: cell-based; details: 168 h, seven days, 25° C., read-out: % control compared to the untreated check (radial growth)
[10] = test system: Alternaria solani; test: Greenhouse Alternaria solani test in tomato, preventive; type: in vivo; details: 24 h, tomato plants sprayed one day before inoculation, read-out: Efficacy (% control), disease severity vs untreated check
Procedure: Compounds were dissolved in 2% DMSO/Acetone & then mixed with water to calibrated spray volume of 50 ml. This 50 ml spray solution was poured into the spray bottles for further applications. To test the preventive activity of compounds, healthy young Tomato plants raised in the greenhouse were sprayed with active compound preparation at the stated application rates inside the spray cabinets using hallowcone nozzles. One day after treatment, the plants were inoculated with spore suspension (2% Malt) containing 0.24×10^6 Alternaria solani inoculum. The inoculated plants were then kept in greenhouse chamber at 22-24° C. temperature and 90-95% relative humidity for disease expression. […] Efficacy (% control) of the compounds was calculated by comparing the disease rating in the treatment with untreated control. The sprayed plants were also assessed for compound's phytotoxic effects by recording symptoms like necrosis, chlorosis and stunting.

SMILES	inhibition of growth at 300 ppm [1]	inhibition of growth at 300 ppm [2]	inhibition of growth at 300 ppm [3]	inhibition of growth at 300 ppm [4]	inhibition of growth at 300 ppm [5]	pest or weed control at 500 ppm [6]	inhibition of growth at 300 ppm [7]	pest or weed control at 500 ppm [8]	inhibition of growth at 300 ppm [9]	pest or weed control at 500 ppm [10]
CCN(C)C=Nc1cc(C)c(Cc2ccc(Cl)cc2)cc1C [Compound 7, N′-(4-(4-chlorobenzyl)-2,5-dimethylphenyl)-N-ethyl-N-methylformimidamide]	75%	> 75%	> 75%	> 80%	> 80%	70 to 100%	> 80%	70 to 100%	> 70%	–
CCN(C)C=Nc1cc(C)c(Cc2ccc(SC)cc2)cc1C [Compound 8, N′-(2,5-dimethyl-4-(4-(methylthio)benzyl)phenyl)-N-ethyl-N-methylformimidamide]	–	> 75%	> 75%	> 80%	> 80%	–	> 80%	–	> 70%	70 to 100%
CCN(C)C=Nc1cc(C)c(Cc2cccc(Br)c2)cc1Cl [Compound 13, N′-(4-(3-bromobenzyl)-2-chloro-5-methylphenyl)-N-ethyl-N-methylformimidamide]	–	> 75%	> 75%	> 80%	> 80%	70 to 100%	> 80%	70 to 100%	> 70%	–
CCN(C)C=Nc1cc(C)c(Cc2ccccc2Cl)cc1Cl [Compound 17, N′-(2-chloro-4-(2-chlorobenzyl)-5-methylphenyl)-N-ethyl-N-methylformimidamide]	75%	> 75%	> 75%	> 80%	> 80%	70 to 100%	> 80%	70 to 100%	> 70%	–
CCN(C)C=Nc1cc(C)c(Cc2ccccc2Cl)cc1C [Compound 18, N′-(4-(2-chlorobenzyl)-2,5-dimethylphenyl)-N-ethyl-N-methylformimidamide]	75%	> 75%	> 75%	> 80%	> 80%	70 to 100%	> 80%	70 to 100%	> 70%	–
CCN(C)C=Nc1cc(C)c(Cc2ccc(Br)cc2)cc1Cl [Compound 22, N′-(4-(4-bromobenzyl)-2-chloro-5-methylphenyl)-N-ethyl-N-methylformimidamide]	75%	> 75%	> 75%	> 80%	> 80%	70 to 100%	> 80%	70 to 100%	> 70%	–
CCN(C)C=Nc1cc(C)c(Cc2ccc(F)c(Cl)c2)cc1C [Compound 28, N′-(4-(3-chloro-4-fluorobenzyl)-2,5-dimethylphenyl)-N-ethyl-N-methylformimidamide]	75%	> 75%	> 75%	> 80%	> 80%	70 to 100%	> 80%	70 to 100%	> 70%	–
Cc1cc(N=CN2CCOCC2)c(C)cc1Cc1cccc(Br)c1F [Compound 36, N-(4-(3-bromo-2-fluorobenzyl)-2,5-dimethylphenyl)-1-morpholinomethanimine]	–	–	> 75%	–	–	–	> 80%	–	–	70 to 100%
CCN(C)C=Nc1cc(C)c(Cc2ccccc2[N+](=O)[O-])cc1C [Compound 50, N′-(2,5-dimethyl-4-(2-nitrobenzyl)phenyl)-N-ethyl-N-methylformimidamide]	75%	> 75%	> 75%	> 80%	> 80%	–	> 80%	–	> 70%	70 to 100%
CCN(C)C=Nc1cc(C)c(Cc2ccc(C#N)cc2)cc1Cl [Compound 68, N′-(2-chloro-4-(4-cyanobenzyl)-5-methylphenyl)-N-ethyl-N-methylformimidamide]	75%	> 75%	> 75%	–	–	–	> 80%	–	> 70%	70 to 100%
CCN(C)C=Nc1cc(C)c(Cc2cccc([N+](=O)[O-])c2)cc1Cl [Compound 71, N′-(2-chloro-5-methyl-4-(3-nitrobenzyl)phenyl)-N-ethyl-N-methylformimidamide]	75%	> 75%	> 75%	> 80%	> 80%	–	> 80%	–	> 70%	70 to 100%
CCN(C)C=Nc1cc(C)c(Cc2ccc(C(F)(F)F)cc2)cc1C [Compound 97, N′-(2,5-dimethyl-4-(4-(trifluoromethyl)benzyl)phenyl)-N-ethyl-N-methylformimidamide]	–	–	–	–	–	–	–	–	–	70 to 100%
CCN(C)C=Nc1cc(C)c(Cc2ccc(C(F)(F)F)cc2)cc1Cl [Compound 101, N′-(2-chloro-5-methyl-4-(4-(trifluoromethyl)benzyl)phenyl)-N-ethyl-N-methylformimidamide]	–	> 75%	> 75%	–	> 80%	70 to 100%	> 80%	70 to 100%	–	–
CCN(C)C=Nc1cc(C)c(Cc2ccccc2C#N)cc1C [Compound 115, N′-(4-(2-cyanobenzyl)-2,5-dimethylphenyl)-N-ethyl-N-methylformimidamide]	–	> 75%	> 75%	> 80%	–	–	> 80%	–	–	70 to 100%
CCN(C)C=Nc1cc(C)c(Cc2cccc(Cl)c2Cl)cc1Cl [Compound 128, N′-(2-chloro-4-(2,3-dichlorobenzyl)-5-methylphenyl)-N-ethyl-N-methylformimidamide]	–	> 75%	> 75%	> 80%	> 80%	–	> 80%	–	> 70%	70 to 100%
CCN(C)C=Nc1cc(C)c(Cc2ccc(F)cc2F)cc1C [Compound 161, N′-(4-(2,4-difluorobenzyl)-2,5-dimethylphenyl)-N-ethyl-N-methylformimidamide]	75%	> 75%	> 75%	> 80%	> 80%	–	> 80%	–	> 70%	70 to 100%
CCN(C)C=Nc1cc(F)c(Cc2ccccc2Cl)cc1C [Compound 174, N′-(4-(2-chlorobenzyl)-5-fluoro-2-methylphenyl)-N-ethyl-N-methylformimidamide]	75%	> 75%	> 75%	> 80%	> 80%	–	> 80%	–	> 70%	70 to 100%
